Source: patent publication US10288604B2, “Method for imaging cell using fluorescence-labeled sugar derivative having coumarin derivative bound thereto, and imaging agent” (HIROSAKI UNIVERSITY, priority 2012, dated 2019)
“Also recorded” adds a separate entry of the source.

What was measured:
Type in all cases: cell-based
[1] = test system: neurons acutely dissociated from mouse midbrain substantia nigra pars reticulata; test: Application of fluorescent sugar derivatives to acutely dissociated normal neurons (confocal imaging of uptake); settings: for increase in fluorescence intensity in the neuron before and after administration: 3 minutes, comparative compounds
Procedure: This was conducted according to a method described in WO 2010/16587.
Living neurons were acutely dissociated from mouse midbrain substantia nigra pars reticulata, and to which a mixed solution containing 100 μM of 2-PBDG and 20 μM of 2-TRLG was administered at 37° C. for 5 minutes. FIGS. 1A to C represent confocal microscopic images taken immediately before this. A is a fluorescence image in blue wavelength region (Blue channel, wavelength range: 415-580 nm). The position of cells is recognized by autofluorescence. The fluorescence signal intensity is represented by pseudocolor. B is a fluorescence image in red wavelength region (Red channel, 580-740 nm). A and B were obtained both by simultaneous excitation using 405 nm Blue diode laser at an intensity of 60%, wherein photomultipliers (PMT) 1 and 2 were used respectively, and the detection sensitivity of PMT2 was raised higher than PMT1 so that the presence or absence of invasion of 2-TRLG can be detected in a sensitive manner. C is a view in which the bright field image is overlaid on the fluorescence images of A and B.
An experiment was conducted in the same manner as in Example 2.
FIGS. 2A to C represent confocal microscopic images immediately before administration of a mixed solution containing 100 μM of 2-PBLG and 20 μM of 2-TRLG at 37° C. to acutely dissociated neurons of mouse midbrain substantia nigra pars reticulata for 5 minutes.
FIG. 3 represents confocal microscopic images before and after administration of a mixed solution containing 100 μM of 2-HCDG and 20 μM of 2-TRLG at 37° C. for 3 minutes to neurons acutely dissociated from mouse midbrain substantia nigra pars reticulata. A and B are fluorescence images acquired before administration in Blue channel (415-580 nm) and Red channel (580-740 nm), respectively. The excitation wavelength is 405 nm. C is an image of differential interference (Differential Interference contrast, DIC). D is an overlay of the above-described images. E to H are the same as A to D, excepting that E to H are images acquired 4 minutes after initiation of washout of the fluorescence tracer solution after administration of the 2-HCDG+2-TRLG fluorescence tracer solution at 37° C. for 3 minutes. […] Since invasion of 2-TRLG into a cell is not observed, the plasma membrane of the neuron is thought to be maintained intactly.
Since the optimal excitation wavelength was as very low as 320 nm in this experiment, an image was acquired by Retiga-2000R CCD camera manufactured by Q-imaging via a custom-order filter constituted of an excitation filter (320 nm) (half width: 40 nm), a fluorescence filter (435 nm) (half width: 40 nm) and a dichroic mirror (409 nm), by a xenon lamp, using Nikon Ti-E real time deconvolution microscope.

[2] = test system: tumor cell cluster composed of mouse insulinoma cells (MIN6); test: Imaging of tumor cell cluster composed of MIN6 cells (real time laser scanning confocal microscope); settings: MIN6 cluster day 13; for fluorescence of cells in the cancer cell cluster 8 minutes after completion of administration: mixed solution 100 μM 2-PBLG, 100 μM 2-NBDLG, 20 μM 2-TRLG
Procedure: A culture solution prepared by suspending MIN6 cells at a proportion of 10×10^4 cells/mL was dropped in an amount of 10 μL on a glass cover slip, then, allowed to adhere to the glass surface, and 3 mL of the culture solution was added and cultured. The half quantity of the culture solution was changed every three days.
Cryopreserved MIN6 cells (cells donated from Professor Miyazaki Junichi of Osaka University and cultured 5 to 8 passages) were subjected to culture according to an ordinary method, and cultured 7 to 9 passages which were used in experiments. The half amount of the culture solution was changed every two days.
NaCl 120.0 mM, KCl 4.75 mM, KH2 PO4 1.19 mM, MgSO4.7H2O 1.19 mM, CaCl2.2H2O 1 mM, NaHCO3 5.02 mM, D-Glucose 5.6 mM, HEPES 10 mM (adjusted to pH 7.35 with 1M NaOH). For inhibiting entrance and elimination of fluorescently labeled glucose via a gap junction/hemichannel, 0.1 mM Carbenoxolone (SIGMA #C4790) was added. The HEPES solution for image acquisition was used as a solution for preparing a 2-PBLG solution and as a solution for preparing a 2-PBLG/2-TRLG solution and 2-PBLG/2-NBDLG/2-TRLG solution.
A glass cover slip wherein MIN6 cells had been cultured was transferred into a HEPES solution for image acquisition in a perfusion chamber set on a universal stage (Leica 11600234) on a confocal laser scanning microscope (TCS SP5 available from Leica), and adhered gently and tightly to the glass surface at the bottom of the chamber. […] Further, there is an excellent effect that in the space sandwiched by the metal guides, the perfusion solution flows smoothly as a laminar flow and quick solution exchange is possible.
A perfusion solution feeding system is equipped with one 60 mL cylinder for a control solution and five 10 mL cylinders for agent feeding, which can be switched as needed by a magnetic valve to allow perfusion. In experiments according to the present invention, a 5.6 mM glucose-containing HEPES solution for image acquisition was administered using the 60 mL cylinder and a mixed solution of 2-PBLG/2-NBDLG/2-TRLG, a mixed solution of 2-PBDG/2-TRLG, or a mixed solution of 2-PBLG/2-TRLG was administered using one of the five 10 mL cylinders. As described below, to avoid generation of bubbles in the perfusion chamber, both the solutions were heated beforehand, combined in one tube before being introduced into the perfusion chamber, the flow rate thereof being controlled by a flow rate controller, then, heated again by an inline heater and fed to the perfusion chamber on the confocal microscope.
A laser scan confocal microscope (manufactured by Leica, TCS-SP5 system, microscope body is DMI6000 CS trino electromotive inverted microscope) was used in conventional mode. Regarding laser used, a 405 nm diode laser was used for excitation of 2-PBLG and 2-PBDG, excitation of a mixed solution of 2-PBLG (or 2-PBDG) and 2-TRLG with a single light source, or live staining of nucleus by DAPI. The irradiation intensity was appropriately adjusted in accordance with the fluorescent pigment used so as to obtain sufficient observation intensity by an acoustic optical polarization element (Acoustic Optical Tunable Filter, AOTF). 2-NBDLG and 2-TRLG were excited by 488 nm Argon laser. The scan speed was 200 Hz or 400 Hz.
In fluorescence detection, a photomultiplier detector (PMT) 1 was used for detection of blue fluorescence by 2-PBDG or 2-PBLG and images were acquired in a wavelength detection range set at 415-580 nm in the case of detection of bicolor of 2-PBLG/2-TRLG and in a wavelength detection range set at 415-500 nm in the case of detection of tricolor of 2-PBLG/2-NBDLG/2-TRLG. For detection of green fluorescence by 2-NBDLG, PMT2 (called green channel, the same shall apply hereinafter) was used in a wavelength detection range of 500-580 nm. For detection of red fluorescence by 2-TRLG, PMT3 (called red channel, the same shall apply hereinafter) was used in a wavelength detection range of 580-740 nm. […]

[3] = test system: mouse insulinoma cells (MIN6); test: Uptake into MIN6 cells and influence of glucose transport inhibitors (fluorescent microplate reader)
Procedure: Cryopreserved MIN6 cells (cells donated from Professor Miyazaki Junichi of Osaka University and cultured 5 to 8 passages) were subjected to culture according to an ordinary method, and cultures at 7 to 9 passages were used in experiments.
NaCl 129.0 mM, KCl 4.75 mM, KH2 PO4 1.19 mM, MgSO4.7H2O 1.19 mM, CaCl2.2H2O 1.0 mM, NaHCO3 5.02 mM, D-Glucose 5.6 mM, HEPES 10 mM (pH was adjusted to 7.35 with 1M NaOH). For inhibiting entrance and elimination of a fluorescently labeled glucose via gap junction/hemichannel, 0.1 mM Carbenoxolone (SIGMA #C4790) was added. This KRB solution was used as a solution for preparing a 2-PBLG solution.
2-PBDG and 2-PBLG were charged into wells at the third column and the fifth column, respectively, using a 8-channel pipette. Before administration, the autofluorescence of each well was measured beforehand by a fluorescent micro plate reader (Flex Station, manufactured by Molecular Device). The measurement conditions include Bottom Read, Ex 401 nm, Em 453 nm, Cut off 420 nm, Averaging 3, and high sensitivity of Photomultiplier. In the measurement method, Well Scan Mode was used. In Well Scan Mode, the inside of one well was divided into 9 regions of interest (diameter: 1.5 mm) and measurement was performed each independently.
Next, in wells (3C, 3E, 3G) for measuring the effect of a glucose transport inhibitor phloretin, phloretin (final 150 μM) was administered beforehand from 5 minutes prior to administration of 2-PBDG, while KRB was added to other wells (3B, 3D, 3F). Similar operation was also conducted on the fifth column where 2-PBLG was to be administered. 2-PBDG and 2-PBLG were administrated at 37° C. for 10 minutes.
After completion of administration, a diluting operation of the fluorescence solution in the well using 300 μL of a KRB solution was repeated set times each for 30 seconds. The repetition time was determined so that the fluorescence intensity detected by wells of A-th row and H-th row set as a control group was equivalent to the fluorescence intensity of a blank well containing no cell, and complete washout was confirmed in every experiment. In the case of 2-PBDG and 2-PBLG, this washout process needed 8 minutes, thus, measurement of fluorescence after administration was carried out 9 minutes after.
According to this method, even if cells having undergone a loss of the plasma membrane contacted 2-PBDG and 2-PBLG and once took up these compounds into themselves, it is judged that contribution of the increase in the fluorescence intensity to the whole observation area was ignorable level since these compounds had already been washed out of the cells when performing the measurement. This was supported by a pharmacological inhibition experiment separately in which the increase in the fluorescence intensity almost completely disappeared in the presence of an inhibitor. The above-described method was conducted in the same manner also when other inhibitor, for example, cytochalasin B (10 μM) was added.
The change of fluorescence intensity by administration of a D-glucose derivative (2-PBDG), an L-glucose derivative (2-PBLG) and PB—NH2 prepared by amidating Pacific Blue (PB) chromophore group to MIN6 cells on day of 10 of culture and the effect by a glucose transport inhibitor were confirmed in the same manner as in Example 4. PB—NH2 has the following structure (Ex max. 402 nm, Em max. 451 nm).
An experiment was conducted in the same manner as in Example 4.
The experiment was carried out 3 times independently, and the same results were obtained in all cases. In the experiment of administration of 2-PBDM, excitation occurred at a maximum excitation light wavelength of 404 nm and fluorescence was acquired at a maximum emission wavelength of 453 nm.

[4] = 100 μM with 20 μM 2-TRLG, 37° C.
[5] = 100 μM derivative, phloretin 150 μM, MIN6 day 10

## 2-TexasRed-2-amino-2-deoxy-L-glucose [2-TRLG]
[1]; 20 μM 2-TRLG co-administered with 100 μM blue derivative, 37° C.
  fluorescence intensity in Red channel / invasion of 2-TRLG into a cell: did not increase; also recorded: scarcely increased; also recorded: not observed
[2]; mixed solution 100 μM 2-PBLG and 20 μM 2-TRLG, administered 5 minutes
  fluorescence of cells in the cell cluster 2 minutes after initiation of washout: invades into the cell having increased membrane permeability mainly present at the center of a cell cluster
[2]
  fluorescence of cells in the cancer cell cluster 8 minutes after completion of administration: very weak red fluorescence

## O=C(NC1C(O)OC(CO)[C@@H](O)C1O)c1cc2ccc(O)cc2oc1=O (stereo partly drawn) [2-HCDG, 2-Deoxy-2-((7-hydroxycoumarin-3-yl)carboxamido)-D-glucose]
[1]; [4]
  increase in fluorescence intensity in the neuron before and after administration: no increase in the fluorescence intensity is detected

## COc1ccc2c(CC(=O)N[C@@H](C=O)[C@@H](O)[C@H](O)[C@H](O)CO)cc(=O)oc2c1 [2-MCDG, 2-Deoxy-2-(2-(7-methoxycoumarin-4-yl)acetamido)-D-glucose]
[1]; [4]
  increase in fluorescence intensity in the neuron before and after administration: not recognized

## O=[N+]([O-])c1ccc(NC2C(O)OC(CO)[C@H](O)C2O)c2nonc12 (stereo partly drawn) [2-NBDLG, 2-[N-(7-nitrobenz-2-oxa-1,3-diazol-4-yl)amino]-2-deoxy-L-glucose, reference compound]
[2]
  fluorescence of cells in the cancer cell cluster 8 minutes after completion of administration: difficult to specify these cells only by the fluorescence imaging by 2-NBDLG

## O=C(NC1C(O)OC(CO)[C@@H](O)C1O)c1cc2cc(F)c(O)c(F)c2oc1=O (stereo partly drawn) [2-PBDG, 2-Deoxy-2-((6,8-difluoro-7-hydroxycoumarin-3-yl)carboxamido)-D-glucose]
[1]; 100 μM with 20 μM 2-TRLG, 37° C., 5 minutes, image 4 minutes after initiation of washout
  intracellular fluorescence intensity in Blue channel as compared with that before administration: increased excepting nucleus
[1]; images 8 and 20 minutes after initiation of washout
  persistence of intracellular blue fluorescence after washout: not easily diminished
[3]; 100 μM derivative, 150 μM phloretin, MIN6 day 10, increase without phloretin as reference
  decreased value of fluorescence intensity owing to phloretin (average): 22.4%
[3]; 100 μM derivative, cytochalasin B 10 μM, MIN6 day 10
  effect of cytochalasin B on increase in fluorescence intensity: did not show a significant inhibitory effect
[3]; 100 μM, MIN6 on day 10 of culture, Ex 401 nm, Em 453 nm
  fluorescence intensity after administration as compared with that before administration: increases significantly

## O=C(NC1C(O)OC(CO)[C@@H](O)C1O)c1cc2cc(F)c(O)c(F)c2oc1=O (stereo partly drawn) [2-PBDM, 2-Deoxy-2-((6,8-difluoro-7-hydroxycoumarin-3-yl)carboxamido)-D-mannose]
[3]; [5]
  effect of phloretin on increase in fluorescence intensity (in words): slight but significant inhibitory effect

## NC(=O)c1cc2cc(F)c(O)c(F)c2oc1=O [PB—NH2, reference compound]
[3]; [5]
  effect of phloretin on increase in fluorescence intensity (in words): remarkably promoted
[3]; 100 μM, phloretin 150 μM, n=3 experiments
  increase in the fluorescence with phloretin compared to when only PB—NH2 is administrated: 384.1±24.2%
[3]; 100 μM, same culture plate, MIN6 day 10
  increase in fluorescence intensity compared with that of 2-PBLG: significantly larger
